# Test system: skin of human volunteers
# Assay: Human Repeat Insult Patch Test (HRIPT), skin irritation and sensitization
# Assay type: in vivo
# Conditions: positive control, study of Example 28, 51 subjects completing
# Description: Prior to utilizing in-vivo efficacy testing, however, it must first be determined that application of the product onto the skin of human volunteers will not cause them to experience an allergic reaction or some form of painful irritation. This is done by performing what is known as a Human Repeat Insult Patch Test (HRIPT). This is an internationally recognized test used to determine the potential for irritation, sensitization, and allergic reaction potential of a product. In view of the growing number of exotic ingredients used in skin care formulations, coupled with the increasingly complex and sophisticated chemical composition of the formulas, the risk of individuals experiencing irritation and allergic reactions because of their use has increased substantially. […] Any allergic reactions experienced by the test subject will be observed, recorded, and evaluated by a dermatologist to confirm, or not, the safety of the product. […]
# Each HRIPT included about 50 subjects. In addition to demographic data collected for each subject, a Fitzpatrick Skin Type was also determined. […]
# This procedure was repeated until a series of 9 consecutive, 24-hour exposures had been made 3 times a week for three 3 consecutive weeks. Prior to each reapplication, the test sites evaluated by trained laboratory personnel. […]
compound,measurement,value
"CCCCCCCCCCCCOS(=O)(=O)[O-].[Na+] [2.0% Sodium Lauryl Sulfate Solution, Sodium Lauryl Sulfate]",number of subjects with a Grade 1 reaction in HRIPT,4 subjects
same,number of subjects with a Grade 3 reaction in HRIPT,one

# Source: patent US10721937B1, “Preservative systems and compositions and methods incorporating same” (CODEX BEAUTY CORPORATION, priority 2019, dated 2020)
